The text below walks through data of US20230391727A1, “ANALOGUES OF PENTAMIDINE AND METHODS FOR TREATING INFECTIONS” (Auransa Inc., priority 2020, published 2023).

The subject of assay [1] is NCI H69 cells. The assay is described as follows: CellTiter-Glo cell viability assay (cytotoxicity), 8 days. In kind it is cell-based. The conditions noted are these: Homo sapiens, 192 h, full growth media. The procedure: The experiment tested pentamidine, Compounds 1-6 in full growth media for 8 days. NCI H69 cells were initially treated with the test compounds on Day 0, and the cells were then replenished with fresh compound dilutions on Day 3. Pentamidine and Compound 1 were tested at 9 concentration points: 100 μM, 33.33 μM, 11.11 μM, 3.70 μM, 1.23 μM, […], 0.05 μM, and 0.02 μM (final DMSO concentration=0.5%). The raw data values from the CellTiter-Glo™ cell viability assay expressed in relative luminescence units were normalized to the vehicle for each individual plate, and any reduction in luminescence indicated a decrease in viability (%). The data was analyzed in GraphPad PRISM using a non-linear sigmoidal plot with variable slope (asymmetric four-point […]), and an IC50 value for each compound was generated based on the normalized dose-response curves and shown in Table 1.
On the technique in general: In ATP-based viability assays light output follows the ATP content of the culture.

For assay [2], the system named is A. baumannii ATCC 17978. Put plainly: Checkerboard assay with novobiocin (FIGS. 2, 3, 5, 6). In kind it is cell-based, Acinetobacter baumannii. The note with it: for MIC: Acinetobacter baumannii, ATCC17978, substance alone. The source says:
Novobiocin is an anti-staphylococcal drug, but with limited use. The oral form of novobiocin drug has since been withdrawn from the market due to lack of efficacy. This antibiotic is often used to treat Staphylococcus aureus infection, particularly methicillin resistant S. aureus “MRSA”.

For assay [3], the system named is S. aureus ATCC 27660. The assay is described as follows: MIC assay against gram positive S. aureus. In kind it is cell-based. The conditions noted are these: Staphylococcus aureus, ATCC27660. The procedure:
(§1) Then the compound stocks were serially 2-fold diluted in a v-bottom 96-well plate to make 100-fold working solutions. One day before the test, −80° C. glycerol stock of S. aureus strains were streaked on cation-adjusted Mueller-Hinton agar (CAMHA) plates. On the day of test, fresh bacterial colonies were suspended into sterile saline to an OD600 nm of ˜0.1 (equivalent to 0.5 McFarland). The bacterial suspension was firstly 20-fold followed by 50-fold diluted in cation-adjusted Mueller-Hinton broth (CAMHB) plates to 1×10^6 CFU/PO. 198 ul of the inoculum was added into the round-bottom 96-well plates prefilled with 2 ul of 100-fold compound working solutions. After incubating at 35 +/−2° C. in ambient atmosphere for 18-24 h, MIC was recorded as the lowest concentration under which no visible bacterial growth was observed.

Assay [4] relates to S. aureus ATCC 43300. Put plainly: MIC assay against gram positive S. aureus. The conditions noted are these: Staphylococcus aureus, ATCC43300. In kind it is cell-based. The procedure:
as §1

Assay [5] has as its system A. baumannii (ATCC 17978). The assay is described as follows: Checkerboard/MIC assay with rifampicin. In kind it is cell-based. The note with it: ATCC17978; substance alone; Acinetobacter baumannii ATCC 17978. An excerpt: (§2) The 17 test strains/isolates were: (1) Serratia marcescens (ATCC 13880); (2) Salmonella typhimurium (ATCC 13311); (3) Salmonella choleraesuis (ATCC 10708); (4) Acinetobacter baumannii (ATCC BAA-1605); (5) A. baumannii (ATCC 17978); (6) A. baumannii (FDA-CDC AR-BANK#0088); (7) Citrobacter freundii (ATCC 8090); (8) Pseudomonas aeruginosa (BCCM 27647); (9) P. aeruginosa (BCCM 27648); (10) Escherichia coli (ATCC 25922); (11) E. coli (ATCC 10536); (12) Stenotrophomonas maltophilia (ATCC 13637); (13) Enterobacter cloacae (ATCC BAA-1143); (14) E. cloacae (ATCC 13047); (15) E. aerogenes (ATCC 13048); (16) Klebsiella pneumoniae (NCTC 13438); and (17) Klebsiella pneumoniae (FDA-CDC AR-BANK#0160). These bacterial strains were obtained from the American Type Culture Collection (ATCC, Rockville, MD, USA); Belgian Coordinated Collections of Microorganisms; The Culture Collections of Public Health England, UK; and FDA-CDC anticimrobial Resistance Isolate Bank, USA, and cryopreserved as single-use frozen working stock cultures which were stored at −80° C.
(§3) The 17 test strains were grown on nutrient agar or tryptic soy agar (TSA) medium as below. Colonies were suspended in phosphate buffered saline (PBS) pH 7.4. The absorbance of the bacterial suspension was measured with a spectrophotometer at OD620nm, and then the suspension was adjusted to 1-2×10^8 CFU/mL in PBS. The adjusted suspension was further diluted 1:500 in cation-adjusted Mueller-Hinton Broth. Each well contained approximately 5×10^5 CFU/mL. […] The testing inoculum was prepared within minutes before adding to wells of the test plate.
(§4) Compound 3 was tested in 8 points by two-fold serial titrations from 100 to 0.78 μg/mL. […] Assay plates were incubated and MIC endpoints were read as complete inhibition of visual growth. The checkerboard combination analysis was performed following the MIC testing protocol to identify potential synergistic, indifferent or antagonistic interactions. The analysis also included each test substance alone at the same concentration ranges.
(§5) FIC (Fraction Inhibitory Concentration) and FIC Index (FICI) values for each test condition and the average of FICI values of all pairwise combinations were calculated to determine if synergy or antagonism existed between the two substances. The FIC index was determined by calculating the sum of the ratios of MICs (minimum inhibitory concentrations) for both substances. […] Synergy is defined as the FICI (Σ)≤0.5; additivity or indifference are defined as the FICI (Σ)>0.5 to ≤4; antagonism is defined as the FICI (Σ)>4. The two fold of highest test article concentration was used for FIC value calculations in the circumstances where MIC values were greater than the highest test article concentration.

Assay [6] relates to A. baumannii (FDA-CDC AR-BANK#0088). Put plainly: Checkerboard/MIC assay with rifampicin. In kind it is cell-based. The conditions noted are these: substance alone; Acinetobacter baumannii AR-BANK 0088.
Description: as §2, §3, §4, §5

The subject of assay [7] is Acinetobacter baumannii (ATCC BAA-1605). The assay is described as follows: Checkerboard/MIC assay with rifampicin. In kind it is cell-based. The note with it: substance alone; Acinetobacter baumannii BAA-1605.
Description: as §2, §3, §4, §5

Assay [8] relates to Citrobacter freundii (ATCC 8090). Put plainly: Checkerboard/MIC assay with rifampicin. The note with it: ATCC8090, substance alone. In kind it is cell-based.
Description: as §2, §3, §4, §5

In assay [9] the test system is E. aerogenes (ATCC 13048). The assay is described as follows: Checkerboard/MIC assay with rifampicin. In kind it is cell-based. The note with it: Klebsiella aerogenes, ATCC13048; substance alone; Enterobacter aerogenes ATCC-13048.
Description: as §2, §3, §4, §5

For assay [10], the system named is E. cloacae (ATCC 13047). The assay is described as follows: Checkerboard/MIC assay with rifampicin. In kind it is cell-based. The conditions noted are these: ATCC13047; substance alone; Enterobacter cloacae ATCC-13047.
Description: as §2, §3, §4, §5

Assay [11] concerns E. coli (ATCC 10536). Put plainly: Checkerboard/MIC assay with rifampicin. In kind it is cell-based. The note with it: ATCC10536; substance alone; Escherichia coli ATCC 10536.
Description: as §2, §3, §4, §5

In assay [12] the test system is Enterobacter cloacae (ATCC BAA-1143). The assay is described as follows: Checkerboard/MIC assay with rifampicin. In kind it is cell-based. The conditions noted are these: substance alone; Enterobacter cloacae BAA-1143.
Description: as §2, §3, §4, §5

Assay [13] deals with Escherichia coli (ATCC 25922). Put plainly: Checkerboard/MIC assay with rifampicin. The conditions noted are these: ATCC25922, substance alone. In kind it is cell-based.
Description: as §2, §3, §4, §5

Assay [14] deals with Klebsiella pneumoniae (FDA-CDC AR-BANK#0160). The assay is described as follows: Checkerboard/MIC assay with rifampicin. In kind it is cell-based. The conditions noted are these: substance alone; Klebsiella pneumoniae AR-BANK#0160.
Description: as §2, §3, §4, §5

Assay [15] has as its system Klebsiella pneumoniae (NCTC 13438). The assay is described as follows: Checkerboard/MIC assay with rifampicin. In kind it is cell-based. The note with it: NCTC13438, substance alone.
Description: as §2, §3, §4, §5

The subject of assay [16] is P. aeruginosa (BCCM 27648). The assay is described as follows: Checkerboard/MIC assay with rifampicin. In kind it is cell-based. The note with it: substance alone; Pseudomonas aeruginosa BCCM27648.
Description: as §2, §3, §4, §5

The subject of assay [17] is Pseudomonas aeruginosa (BCCM 27647). Put plainly: Checkerboard/MIC assay with rifampicin. In kind it is cell-based. The note with it: substance alone; Pseudomonas aeruginosa BCCM27647.
Description: as §2, §3, §4, §5

Assay [18] has as its system Salmonella choleraesuis (ATCC 10708). Put plainly: Checkerboard/MIC assay with rifampicin. In kind it is cell-based. The note with it: Salmonella enterica.
Description: as §2, §3, §4, §5

The test system of assay [19] is Salmonella typhimurium (ATCC 13311). The assay is described as follows: Checkerboard/MIC assay with rifampicin. The conditions noted are these: Salmonella enterica; substance alone; Salmonella typhimurium ATCC13311. In kind it is cell-based.
Description: as §2, §3, §4, §5

Assay [20] has as its system Serratia marcescens (ATCC 13880). Put plainly: Checkerboard/MIC assay with rifampicin. In kind it is cell-based. The note with it: ATCC13880, substance alone.
Description: as §2, §3, §4, §5

For assay [21], the system named is Stenotrophomonas maltophilia (ATCC 13637). The assay is described as follows: Checkerboard/MIC assay with rifampicin. In kind it is cell-based. The note with it: ATCC13637, substance alone.
Description: as §2, §3, §4, §5

Converted amounts (≈) assume the structure as drawn.

`N=C(N)c1cccc(CCCCCCCc2cccc(C(=N)N)c2)c1` [Compound 1, 3,3′-(heptane-1,7-diyl)dibenzimidamide] returned an IC50 in [1] of 0.31 µM. For the same molecule, in assay [2], the “synergistic effect with novobiocin” value is reported as “clear synergistic effects”, the “synergy with novobiocin as compared to pentamidine with novobiocin” value is recorded as “superior synergy” and the MIC amounted to 149 µM.
Consider `N=C(N)c1ccc(CC[C@@H]2CCC[C@@H](CCc3ccc(C(=N)N)cc3)C2)cc1` [Compound 4, 4,4′-(2,2′-((1R,3R)-cyclohexane-1,3-diyl)bis(ethane-2,1-diyl))dibenzimidamide], for which the IC50 in assay [1] was 0.75 µM.
Regarding `N=C(N)c1ccc(CC[C@@H]2CCC[C@H](CCc3ccc(C4CCNC4)cc3)C2)cc1` (stereo partly drawn) [Compound 5, 4-(2-((1S,3R)-3-(4-(pyrrolidin-3-yl)phenethyl)cyclohexyl)ethyl)benzimidamide], in [1], the IC50 worked out at 1.46 µM. Also, the MIC in assay [3] and in assay [4] was 8 µg/mL (≈ 19.8 µM) each time.
Regarding `N=C(N)c1cccc(CC[C@H]2CCC[C@@H](CCc3cccc(C(=N)N)c3)C2)c1` [Compound 6, 3,3′-(((1R,3S)-cyclohexane-1,3-diyl)bis(ethane-2,1-diyl))dibenzimidamide], the IC50 in [1] came to 0.33 µM.
The molecule `Nc1nccc2ccc(CCCCCCCc3ccc4ccnc(N)c4c3)cc12` [Compound 7, 7,7′-(heptane-1,7-diyl)bis(isoquinolin-1-amine)] came in with an IC50 in [1] of 1.15 µM. In addition, in [2], the “synergistic effect with novobiocin” value is recorded as “no synergistic effect” and the MIC was found to be 8.13 µM.
On to `N=C(N)c1ccc(CCCCCCCc2ccc(C3CCNC3)cc2)cc1` (stereo not drawn) [Compound 8, 4-(7-(4-(pyrrolidine-3-yl)phenyl)heptyl)benzimidamide], for which the midpoint of inhibition in assay [1], the IC50, lay at 1.92 µM. Further, in assay [2], the “synergy with novobiocin as compared to pentamidine with novobiocin” value is “increased synergy” and the minimum inhibitory concentration (MIC) was above 34.4 µM.
As for `N=C(N)c1ccc(OCCCCCOc2ccc(C(=N)N)cc2)cc1` [Pentamidine, 1,5-bis(4-amidinophenoxy)pentane], the figures for the MIC in assay [3] and in assay [4] were 16 µg/mL (≈ 47 µM) and 64 µg/mL (≈ 188 µM), respectively.
Consider `CO[C@H]1/C=C/O[C@@]2(C)Oc3c(C)c(O)c4c(O)c(c(/C=N/N5CCN(C)CC5)c(O)c4c3C2=O)NC(=O)/C(C)=C\C=C\[C@H](C)[C@H](O)[C@@H](C)[C@@H](O)[C@@H](C)[C@H](OC(C)=O)[C@@H]1C` [Rifampicin, reference compound], for which the minimum inhibitory concentration (MIC) in assay [5] is 6.25 µg/mL; in assay [6], 3.12 µg/mL; in assay [7], 3.12 µg/mL; in assay [8], above 12.5 µg/mL; in assay [9] it was above 12.5 µg/mL; in [10], above 12.5 µg/mL. The minimal inhibitory concentration (MIC) was 3.12 µg/mL in [11]; above 12.5 µg/mL in assay [12]; 6.25 µg/mL in assay [13]; above 12.5 µg/mL in assay [14]; above 12.5 µg/mL in assay [15]; above 12.5 µg/mL in assay [16]. For the same molecule, the MIC in assay [17] was above 12.5 µg/mL; in assay [18], 12.5 µg/mL; in assay [19], above 12.5 µg/mL; in assay [20], above 12.5 µg/mL; in assay [21] it was 6.25 µg/mL.
For `CO[C@@H]1[C@@H](OC(N)=O)[C@@H](O)[C@H](Oc2ccc3c(O)c(NC(=O)c4ccc(O)c(CC=C(C)C)c4)c(=O)oc3c2C)OC1(C)C` [novobiocin, reference compound], the MIC in assay [2] is above 18.9 µM. Besides, the “MIC of novobiocin when FICI is calculated” value in assay [2] (value used for FICI calculation) is 37.8 µM.

For orientation: IC50 means the concentration at which inhibition is half-maximal. Usually MIC stands for the lowest concentration found to suppress growth.
